Several values for one entry are separate records, joined by “and”; a condition that tells them apart may be missing. Identical values can stand only once.

Data set [1] is described as follows: Encapsulation efficiency of doxorubicin hydrochloride in siosomes (absorbance at 480 nm after gel filtration). It is filed as physicochemical. The procedure:
A doxorubicin hydrochloride solution at 10 mg/ml was prepared using physiological saline. The predetermined amount of the doxorubicin hydrochloride solution was added to the sugar siosome dispersion using the cationic organosilicon compounds such as 1.2-(Dimethyldecylsilyl)ethyl-beta-D-glucosamin, 2.2-(Dimethyloctylsilylcholin)ethyl-beta-D-glucopyranosid and/or 1.2-(DiN,N,N,trimethylammoniadecylsilyl)ethyl-beta-D-glucopyranosid and the mixture was adjusted to pH 7.4, using 1 N NaOH or saturated sodium hydrogencarbonate and the mixture was stirred at 65°C for 30 minutes the thereby introduce the doxorubicin hydrochloride in the siosomes.
After doxorubicin hydrochloride introduction, the sample was cooled in an ice bath. Gel filtration was conducted using a column (Sepharose 4, fast flow, having a diameter of 2.8 cm and a length of 20 cm, fully substituted with 10% sucrose (pH 6.5)) to remove the doxorubicin hydrochloride that had not been introduced in the siosomes.
The amount of the sugar silanes in the siosomes, the amounts of the doxorubicin hydrochloride encapsulated in the siosomes and the siosomes themselves were measured by the same methods as in the above examples.
Concentration of the doxorubicin hydrochloride encapsulated in the siosomes was determined by measuring absorbance at 480 nm, using a spectrophotometer for the solution prepared by adding 2 ml of methanol to 40 µl of the doxorubicin siosomes. An alternative HPLC-based assay has also been used for the quantification of the doxorubicin in the formulations.
The above procedures described in example 16 were employed to prepare the carrier siosomes systems in this example. According to these methods of preparation, a dispersion of each of the following organo-silicon compounds were prepared, using doxorubicin hydrochloride solutions at […]. • Sil 8.1: Decyldimethylsilyl-α-D-galactopyranosid • Sil 9.1: Dodecyldimethylsilyl-α-D-glucopyranosid • SIL 15: 1-O-Dioctadecylsilyl-di(2,3,4,6-O-tetracetyl-β-D-galactopyranosid) • SIL 14: 1-o-Dioctadecylsilyl-di(2,3,4,6-O-tetracetyl-β-D-glucopyranosid)1-o- • SIL17: Didodecylsilyl-di(2,3,4,6-O-tetracetyl-β-D-glucopyranosid) • SIL18: Tridodecylsilyl-(2,3,4,6-O-tetracetyl-β-D-glucopyranosid) • Sil22.1 Di(octadecanoyloxy)dimethylsilan
The following parameters have been determined: 1 Physico chemical properties 2 Encapsulated efficiency of doxorubicin 3 Stability 4 Particle size distribution prior to lyophilisation and after dehydration using sterile water for injection 5 Release profile

The conditions of data set [2]: for Particle size range of the Doxorubicin-siosomes (nm): Example 18: doxorubicin-siosomes prepared from the single organosilicon compound; for Particle size (nm): Example 19: doxorubicin-siosomes from organosilicon compounds and combinations.
Experimental: The siosome size was measured using Zetasizer (Malvern Instruments).
The obtained test samples were analyzed using a Zetasizer from Malvern to measure the particle size of the Siosomes® and its concentration (via determination of the count rate which related to the sample quality and concentration).
The Zetasizer from Malvern performs particle size measurements using a process called Dynamic Light Scattering (DLS). Dynamic Light Scattering (also known as PCS - Photon Correlation Spectroscopy) measures Brownian motion and relates this to the size of the particles. It does this by illuminating the particles with a laser and analyzing the intensity fluctuations in the scattered light. If the particles or molecules are illuminated with a laser, the intensity of the scattered light fluctuates at a rate that is dependent upon the size of the particles as smaller particles are "kicked" further by the solvent molecules and move more rapidly.
Data set [3] is described as follows: IPSS E011: pharmacokinetics and bioaccumulation of platinum complexes, total platinum in blood and organs by AAS. It is filed as in vivo. The settings on record: rats, 1.0 mg intravenous, repeated dose over 7 consecutive days. The text has this:
IPSS E011: A Clinical Study in Rats on the Pharmacokinetics and Bioaccumulation of Platinum Complexes following the Repeated Dose over 7 Consecutive Days of Formulations (PT-11, PT-12 and PT-13), with 7 Days Non-Treatment Period
The following tables and figure 12 illustrate a summary of the generated results.

A short description of data set [4]: Intracellular distribution of Cis-Oxoplatin within the rat liver, total platinum in liver homogenate and fractions. The note with it: rats, 1.5 mg Cis-Oxoplatin encapsulated in Siosomes of the compound, intravenous, 3 hours after administration. It is filed as in vivo. The text has this: • 1. The objective of the study to assess the intracellular distribution of Cis-Oxoplatin (as model drug molecule) in rat liver using Cis-Oxoplatin encapsulated in Siosomes®, using the following organosilicon compounds: • a. Sugar Organosilicon Compound: Didodecylsilyi-di(2,3,4,6-O-tetraacetyl-β-D-glucopyranosid (SIL 17) • b. Cationic Sugar Organosilicon Compound: 2.2-(Dimethyloctylsilylcholin)ethyl- β-D-glucopyranosid (SIL62) • c. Anionic Sugar Organosilicon Compound: 2-(Dimethyidecylsilyl)ethyl-β-D-glucopyranosidsulfate (SIL56) • d. Zwitterionic Sugar Organosilicon Compound: 2-(N,N,N, trimethylammonianonaylsilyl)ethyl- P-D-glucopyranosidsulfate (SIL66) • e. PEGylated Organosilicon Compound: 2-(Dimethyloctylsilylcholin)ethyl-β-D-PEG-acetylglucosaminether (SIL54) • 2. The different Siosomes® using each of the above mentioned organosilicon compounds have been prepared according to the procedures of this invention. The particle size range of the Siosomes® was 120-300 nm.
The Platinum-Siosomes®-Complex formulations were supplied in vials containing 10 mg each. Before administration, the contents of each vial was dissolved using 2 ml of sterile distilled water.
Each rat was administered with 1.5 mg investigative formulation, therefore each rat was administered 300 µl.
At the start of the study, all animals in all treatment groups received 1.5 mg of investigative drug. All drugs given via intravenous route were treated in an ultrasonic bath for five minutes at room temperature.
Tissue fractionation was performed by differential centrifugation yielding 5 fractions: • a. Mitochondrial fraction • b. Cytosol • c. Lysosomes • d. Microsomal fraction • e. Membrane fraction
Animals have been sacrificed 3 hours after the administration of the Siosomes® formulations. The livers have been removed from all animals. The liver homogenate has been prepared from the liver of each treatment group and used for the fractionation of the liver cells.
Each of the animals in the treatment control group for the determination of total platinum in the liver homogenate have been administered the Drug-Siosomes® formulations in the same way/procedures as the treatment groups.
Total platinum concentrations have been determined in each fraction for the treated and untreated animal groups. • Average animal weight = 211.64 ± 21.23 g • Average liver weight = 10.40 ± 1.27 g • Average concentration of total platinum in the liver homogenate of the treatment groups (control) • Group 1: Sugar Organosilicon Compound = 2.34 ± 0.82 µg/g • Group 2: Cationic Sugar Organosilicon Compound = 4.40 ± 1.30 µg/g • Group 3: Anionic Sugar Organosilicon Compound = 2.20 ± 0.90 µg/g • Group 4: Zwitterionic Sugar Organosilicon Compound = 3.10 ± 0.70 µg/g • Group 5: PEGylated Organosilicon Compound = 2.90 ± 1.20 µg/g

Where [5] appears, read: Example 18: doxorubicin-siosomes prepared from the single organosilicon compound.
[6] abbreviates: Example 19: doxorubicin-siosomes from organosilicon compounds and combinations.

Take “2-(Dimethyl nonaoic acid silyl)ethyl-beta-D-PEG-acetylglucosaminether [SIL 53]”: in data set [1] (setting [5]), the “Encapsulation efficiency (%)” value is 80-85%. The “Particle size range of the Doxorubicin-siosomes (nm)” value (“Particle size range” for short) in data set [2] is listed as 180-250 nm.

As for `N.N.[Cl-].[Cl-].[OH-].[OH-].[Pt+4]` [Standard Cis-Oxoplatin, Cis-oxoplatin], the “Concentration of Total Platinum in Blood (ng/ml), Average” value in data set [3] (7 days non-treatment period, average of 6 rats) was 1521,92 ng/ml. In addition, the “Concentration of Total Platinum in Blood (ng/ml)” value in data set [3] (7 days non-treatment period, individual rats) is 1814,30 ng/ml and 1131,40 ng/ml and 1522,90 ng/ml and 1244,30 ng/ml and 1864,30 ng/ml and 1554,30 ng/ml. In data set [3] (average of 6 rats), the “Concentration of Total Platinum in Kidney (µg/g), Average” value is reported as 14,92 µg/g; the “Concentration of Total Platinum in Lung (µg/g), Average” value is listed as 0,77 µg/g; the “Concentration of Total Platinum in Spleen (µg/g), Average” value was 2,39 µg/g; the “Concentration of Total Platinum in Stomach (µg/g), Average” value is 0,41 µg/g. In data set [3] (individual rats), the “Concentration of Total Platinum in Kidney (µg/g)” value was 21,22 µg/g and 13,92 µg/g and 15,88 µg/g and 11,62 µg/g and 11,76 µg/g and 15,12 µg/g; the “Concentration of Total Platinum in Lung (µg/g)” value was 0,80 µg/g and 0,62 µg/g and 1,09 µg/g and 0,52 µg/g and 0,71 µg/g and 0,86 µg/g; the “Concentration of Total Platinum in Stomach (µg/g)” value is 0,51 µg/g and 0,47 µg/g and 0,38 µg/g and 0,35 µg/g (2×) and 0,37 µg/g. In data set [3] (individual rats, listed as Standard Cis-Oxoplatinum), the “Concentration of Total Platinum in Spleen (µg/g)” value is 1,99 µg/g and 2,28 µg/g and 2,35 µg/g and 2,10 µg/g and 3,81 µg/g and 1,80 µg/g.

With `CCCCCCCC[Si](C)(C)CCO[C@@H]1O[C@H](CO)[C@H](O)[C@H](O)[C@H]1O` [SIL 22, 2-(Dimethyloctylsilyl)ethyl-β-D-galactopyranosid], the “Encapsulation efficiency (%)” value in data set [1] (setting [6]) is 55-70%. For the same molecule, the “Particle size (nm)” value in data set [2] was 250-300 nm.

Take “2-(Dimethyloctadecylsilyl)ethyl-beta-N-acetylmuramic acid [SIL 60]”: the “Encapsulation efficiency (%)” value in data set [1] (setting [5]) was 60-70%. In addition, the “Particle size range” value in data set [2] is on record as 200-250 nm.

`CCCCCCCCCC[Si](C)(C)CCO[C@@H]1O[C@H](COS(=O)(=O)O)[C@@H](O)[C@H](O)[C@H]1O` [SIL 56, 2-(Dimethyldecylsilyl)ethyl-beta-D-glucopyranosidsulfate]: the “Encapsulation efficiency (%)” value in data set [1] (setting [5]) is reported as 60-70%. In data set [4], the “Average concentration of total platinum in the liver homogenate” value is 2.20 ± 0.90 µg/g. Further, the “Particle size range” value in data set [2] is 200-220 nm.

Turning to `CCCCCCCCCC[Si](C)(C)CCO[C@@H]1O[C@H](C(=O)O)[C@@H](O)[C@H](O)[C@H]1O` [SIL 57, 2-(Dimethyldecylsilyl)ethyl-beta-D-glucopyranosidcarboxylate], in data set [1] (setting [5]), the “Encapsulation efficiency (%)” value is 75-80%. Moreover, the “Particle size range” value in data set [2] is reported as 180-270 nm.

Turning to “2-(Dimethyloctylsilylcholin)ethyl-beta-D-PEG-acetylglucosaminether [SIL 54]”, in data set [1] (setting [5]), the “Encapsulation efficiency (%)” value is given as 80-85%. The “Particle size range” value in data set [2] is 200-250 nm.

As to `C[Si](C)(CCCCCCCCC(=O)O)CCO[C@@H]1O[C@H](CO)[C@@H](O)[C@H](O)[C@H]1O` [SIL 58, 2-(Dimethylnonanoic acid silyl)ethyl-beta-D-glucopyranosid], in data set [1] (setting [5]), the “Encapsulation efficiency (%)” value was 70-80%. In addition, the “Particle size range” value in data set [2] was 150-270 nm.

For “2-(N,N,N,trimethylammonia nonyllsilyl)ethyl-beta-D-glucopyranosid [SIL 67]”, the “Encapsulation efficiency (%)” value in data set [1] (setting [5]) was 60-70%. For the same molecule, the “Particle size range” value in data set [2] is reported as 200-280 nm.

Regarding `CCCCCCCCCC[Si](C)(C)O[C@H]1O[C@H](CO)[C@H](O)[C@H](O)[C@H]1O` [Sil 8.1, Decyldimethylsilyl-α-D-galactopyranosid], in data set [1] (setting [5]), the “Encapsulation efficiency (%)” value is 65-70%. Moreover, in data set [2], the “Particle size range” value is on record as 100-220 nm.

As to `CCCCCCCCCCCCCCCCCC[Si](CCCCCCCCCCCCCCCCCC)(O[C@@H]1O[C@H](COC(C)=O)[C@H](OC(C)=O)[C@H](OC(C)=O)[C@H]1OC(C)=O)O[C@@H]1O[C@H](COC(C)=O)[C@H](OC(C)=O)[C@H](OC(C)=O)[C@H]1OC(C)=O` [SIL 15, 1-O-Dioctadecylsilyl-di(2,3,4,6-O-tetraacetyl-β-D-galactopyranosid)], the “Encapsulation efficiency (%)” value in data set [1] (setting [5]) is reported as 70-78%. Moreover, the “Particle size range” value in data set [2] was 180-250 nm.

With `CCCCCCCCCCCCCCCCCC[Si](CCCCCCCCCCCCCCCCCC)(O[C@@H]1O[C@H](COC(C)=O)[C@@H](OC(C)=O)[C@H](OC(C)=O)[C@H]1OC(C)=O)O[C@@H]1O[C@H](COC(C)=O)[C@@H](OC(C)=O)[C@H](OC(C)=O)[C@H]1OC(C)=O` [SIL 14, 1-O-Dioctadecylsilyl-di(2,3,4,6-O-tetraacetyl-β-D-glucopyranosid)], in data set [1] (setting [5]), the “Encapsulation efficiency (%)” value is listed as 75-80%. For the same molecule, the “Particle size range” value in data set [2] was 210-260 nm.

`CCCCCCCCCC(=O)O[Si](C)(C)OC(=O)CCCCCCCCC` [SIL 21.1, Di(decanoyloxy)dimethylsilan]: the “Encapsulation efficiency (%)” value in data set [1] (setting [5]) is reported as 60-75%. For the same molecule, the “Particle size range” value in data set [2] is reported as 210-240 nm.

On to `CCCCCCCCCCCC[Si](C)(C)O[C@H]1O[C@H](CO)[C@@H](O)[C@H](O)[C@H]1O` [Sil 9.1, Dodecyldimethylsilyl-α-D-glucopyranosid], for which the “Encapsulation efficiency (%)” value in data set [1] (setting [5]) is 60-65%. For the same molecule, in data set [2], the “Particle size range” value is 150-200 nm.

Take `CCCCCCCCCCCC[Si](CCCCCCCCCCCC)(CCCCCCCCCCCC)O[C@@H]1O[C@H](COC(C)=O)[C@@H](OC(C)=O)[C@H](OC(C)=O)[C@H]1OC(C)=O` [SIL 18, Tridodecylsilyl-(2,3,4,6-O-tetraacetyl-β-D-glucopyranosid)]: the “Encapsulation efficiency (%)” value in data set [1] (setting [5]) was 55-60%. Further, the “Encapsulation efficiency (%)” value in data set [1] (setting [6]) is listed as 60-80%. Moreover, in data set [2], the “Particle size range” value is 160-250 nm and the “Particle size (nm)” value was 220-350 nm.

As for `C[Si](C)(CCCCCCCCCC(=O)O)CCOC1O[C@H](CO)[C@H](O)[C@H](O)[C@H]1N` (stereo partly drawn) [SIL 68], the “Encapsulation efficiency (%)” value in data set [1] (setting [5]) is listed as 70-80%. For the same molecule, the “Particle size range” value in data set [2] is on record as 180-220 nm.

Take “2-(Dimethylcholesterylhemisuccinatesilyl)ethyl-beta-D-glucopyranosid sulfate [SIL 59]”: the “Encapsulation efficiency (%)” value in data set [1] (setting [5]) is recorded as 60-70%. Besides, the “Particle size range” value in data set [2] is 180-220 nm.

For the origin of these results see EP2563337B1, “CARRIER AND TARGETING SYSTEM COMPRISING A SIOSOMAL COMPOSITION FOR INTRACELLULAR DELIVERY AND TARGETING OF ACTIVE SUBSTANCE” (Salama, Zoser B., priority 2010, dated 2011).
